For data set [1], the system named is human umbilial vein endothelial cells (HUVECs). Particulars: previous finding; cited from earlier work.
Data set [2] has as its system VEGF-induced angiogenesis. Particulars: previous finding; cited from earlier work.
Data set [3] concerns Human umbilical vein endothelial cells (HUVECs). Kind of data set: [3H]thymidine incorporation assay: VEGF-induced cell proliferation (DNA synthesis) of HUVECs. Particulars: VEGF 10 ng/mL; for activity on VEGF-induced cell proliferation of HUVECs compared with positive control YD-3: 1 μM. Type of data set: cell-based. As to the method: Human umbilical vein endothelial cells were incubated in the absence (basal and control) or presence of tested sample (YD-3, 10, 15, 17, 21, 25, 26) with 30 μM, and then vascular endothelial growth factor (VEGF) was added (except for basal) to induce DNA synthesis, which was detected using [^3H] thymidine incorporation assay.
Human umbilical vein endothelial cells were incubated in the absence (basal and control) or presence of tested sample (YD-3, 10, 15, 17, 21, 25, 26) with 10 μM, and then vascular endothelial growth factor (VEGF) was added (except for basal) to inducd DNA synthesis, which was detected using [^3H] thymidine incorporation assay. Means±S.E. (n=5) were presented.
Human umbilical vein endothelial cells were incubated in the absence (basal and control) or presence of tested sample (YD-3, 10, 15, 17, 21, 25, 26) with 1 μM, and then vascular endothelial growth factor (VEGF) was added (except for basal) to inducd DNA synthesis, which was detected using [^3H] thymidine incorporation assay. Means±S.E. (n=5) were presented.
(§1) Human umbilical vein endothelial cells (HUVECS) were isolated according to the protocols from Jaffe et al. and obtained from human umbilical cord veins with collagenase and cultured in 75 cm^2 plastic flasks in M199 containing 20% FBS, 15 μg/mL endothelial cell growth supplements (ECGs). Confirmation of their identity as endothelial cells was provided by detection of CD31 (PECAM-1), assessed by immunostaining. Experiments were conducted on HUVECs that had used in passage 2 to 5.
Confluent HUVECs were trypsinized, suspended in DMEM supplemented with 20% FBS, and seeded at 1.0×10^4 cells per well into 96-well plates. After 24 h, the cells were washed twice with PBS and starved with 2% FBS-M199 medium for 24 h. The cells were incubated with or without indicated reagents and growth factors (VEGF; 10 ng/mL) for 24 h and harvested. Before the harvest, cells were incubated with [^3H]thymidine (2 μCi/mL) for 4 h, harvested with Filter-Mate (Packard), and incorporated radioactivity was determined.
The effect of tested compounds on VEGF-induced cell proliferation of HUVECs was assessed with the [^3H]thymidine incorporation assay, and the results were illustrated in FIG. 5-FIG. 7.

Another data set has as its system angiogenesis. Kind of data set: Evaluation for anti-angiogenic activities (overall summary). Particulars: summary statement. As to the method: 3-(4-Methylphenyl)-1H-indazole (10) and N^2-(substituted benzyl)-3-(4-methylphenyl)indazoles (15, 17, 21, 25, 26) were evaluated for anti-angiogenic activities.
In this study, 3-(4-methylphenyl)-1H-indazole (10) and five of the above mentioned N^2-regioisomers, namely, compounds 15, 17, 21, 25 and 26 were selected for evaluating their effects on VEGF-induced cell proliferation, on VEGF-induced tube formation of HUVECs in vitro, and on neovascular formation in vivo.

Data set [4] relates to Human umbilical vein endothelial cells (HUVECs). Description: VEGF-induced tube formation of HUVECs on Matrigel. Type of data set: cell-based. As to conditions: FIG. 8; for blockage of VEGF-induced tube formation of HUVECs: Matrigel-coated chamberslide. As to the method: FIG. 8 show photographs of the results of in vitro assay (inhibition of tube formation). Human umbilical vein endothelial cells were cultured onto chamberslide, which was precoated with Matrigel (10 mg/ml). Cells were treated without (basal and control) or with tested sample (YD-3, 10, 15, 17, 21, 25, 26) and then vascular endothelial growth factor (VEGF) was added to induce tube formation. All photographs were taken at 100×magnification.
as §1

For data set [5], the system named is VEGF-induced angiogenesis in Matrigel plug. Description: In vivo Matrigel plug assay (neovascular formation, hemoglobin concentration). As to conditions: nude mice, FIG. 9; for anti-angiogenic activity in Matrigel plug assay (hemoglobin concentration): 150 ng/ml VEGF plug, oral, seven-day administration. As to the method: Nude mice were subcutaneously injected with a Matrigel plug containing 150 ng/ml vascular endothelial growth factor (VEGF). Vehicle or tested sample (YD-3, 10, 15, 17, 21, 25, 26) was orally administered into the mice. After a seven-day administration, the animals were euthanized and the plugs were cut of the mice for the measurement of angiogenic effect using the hemoglobin concentration as the parameter by means of a hemoglobin detection kit (Sigma). Means±S.E. (n=3) were presented. Nude mice (6 weeks of age) were given s.c. injections of 500 μL of Matrigel (Becton Dickinson, Bedford, Mass.) at 4° C. with or without YC-1 and growth factor (150 ng/mL VEGF). After injection, the Matrigel rapidly formed a plug. After 7 days, the skin of the mouse was easily pulled back to expose the Matrigel plug, which remained intact. After quantitative differences were noted and photographed, hemoglobin was measured, as an indication of blood vessel formation, using the Drabkin method (Drabkin reagent kit 525, Sigma, St. Louis, Mo.). The concentration of hemoglobin was calculated from a known amount of hemoglobin assayed in parallel. The in vivo Matrigel plug assay was used in this study to determine quantitative the anti-angiogenic effect of tested compounds.

Data set [6] concerns thrombin-induced Ca++ signal and thromboxane production. Particulars: previous work; cited from earlier work.
The target in data set [7] is T1, protease activated receptor (PAR)-4 (Homo sapiens, UniProt Q96RI0).
T1 sequence (Q96RI0 18-385): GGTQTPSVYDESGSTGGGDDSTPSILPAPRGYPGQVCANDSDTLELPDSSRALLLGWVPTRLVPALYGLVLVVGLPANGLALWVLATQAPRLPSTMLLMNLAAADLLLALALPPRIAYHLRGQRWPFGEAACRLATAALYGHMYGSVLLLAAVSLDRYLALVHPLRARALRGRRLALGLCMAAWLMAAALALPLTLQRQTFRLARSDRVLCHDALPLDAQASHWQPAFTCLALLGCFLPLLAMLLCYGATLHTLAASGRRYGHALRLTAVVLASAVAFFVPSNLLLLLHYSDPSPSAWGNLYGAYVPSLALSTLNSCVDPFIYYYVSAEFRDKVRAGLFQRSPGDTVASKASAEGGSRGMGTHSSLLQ
As to conditions: previous works; cited from earlier work.

Regarding `O=C(O)c1ccc(-c2nn(Cc3ccccc3)c3ccccc23)cc1` [CHS-6, 4-(1-benzyl-1H-indazol-3-yl)benzoic acid], in [1], the “inhibition of VEGF-induced cell proliferation in HUVECs” value is “inhibit”, the “inhibition of VEGF-induced migration in HUVECs” value is listed as “inhibit” and the “inhibition of VEGF-induced tube formation in HUVECs” value is reported as “inhibit”. Further, in [2], the “inhibition of VEGF-induced angiogenesis in Matrigel plug animal model” value is “inhibit”.
In the case of `Cc1ccc(Cn2nc3ccccc3c2-c2ccc(C)cc2)cc1` [Compound 21, 2-(4-Methylbenzyl)-3-(4-methylphenyl)-2H-indazole], the melting point was 107.5 to 109.3 °C. The “activity on VEGF-induced cell proliferation of HUVECs compared with positive control YD-3” value in data set [3] is recorded as “better activity than positive control YD-3”. Further, the “inhibitory effect on VEGF-induced cell proliferation of HUVECs ([3H]thymidine incorporation)” value (“inhibitory effect” below) in data set [3] (10 μM, FIG. 6) was “significant inhibitory effect”. Further, the “inhibitory effect” value in data set [3] (30 μM, FIG. 5) is reported as “significant inhibitory effect”. Further, the “anti-angiogenic activity (overall)” value in the data set on angiogenesis is given as “significant anti-angiogenic activity”. In data set [4], the “inhibitory activity on tube formation compared with other tested compounds and YD-3” value was “more potent than other tested compounds and YD-3”; the “blockage of VEGF-induced tube formation of HUVECs” value was “significant blockage”. In data set [5], the “anti-angiogenic activity in Matrigel plug assay (hemoglobin concentration)” value is reported as “significant anti-angiogenic activities” and the “anti-angiogenic potency in Matrigel plug assay compared with positive control YD-3” value is “superior potency than the positive control YD-3”.
In turn, `COc1ccc(Cn2nc3ccccc3c2-c2ccc(C)cc2)cc1` [Compound 25, 2-(4-Methoxylbenzyl)-3-(4-methylphenyl)-2H-indazole] returned a melting point of 113.6 to 115 °C. For the same compound, in data set [3], the “activity on VEGF-induced cell proliferation of HUVECs compared with positive control YD-3” value is “better activity than positive control YD-3”. For the same compound, the “inhibitory effect” value in data set [3] (10 μM, FIG. 6) is listed as “significant inhibitory effect”. For the same compound, the “inhibitory effect” value in [3] (30 μM, FIG. 5) was “significant inhibitory effect”. Moreover, the “anti-angiogenic activity (overall)” value with angiogenesis is listed as “significant anti-angiogenic activity”. Moreover, in data set [4], the “inhibitory activity on tube formation compared with other tested compounds and YD-3” value was “more potent than other tested compounds and YD-3”; the “blockage of VEGF-induced tube formation of HUVECs” value is listed as “significant blockage”. In data set [5], the “anti-angiogenic activity in Matrigel plug assay (hemoglobin concentration)” value is recorded as “significant anti-angiogenic activities” and the “anti-angiogenic potency in Matrigel plug assay compared with positive control YD-3” value is on record as “superior potency than the positive control YD-3”.
As to `CCOC(=O)c1ccc(-c2nn(Cc3ccccc3)c3ccccc23)cc1` [YD-3, Ethyl 4-(1-benzyl-1H-indazol-3-yl)benzoate], the “inhibitory effect” value in data set [3] (10 μM, FIG. 6) is given as “significant inhibitory effect”. Also, the “inhibitory effect” value in [3] (30 μM, FIG. 5) is recorded as “significant inhibitory effect”. For the same compound, in data set [6], the “inhibition of low thrombin-induced Ca++ signal” value is recorded as “effectively inhibits” and the “inhibition of low thrombin-induced thromboxane production” value is recorded as “effectively inhibits”. In addition, in data set [1], the “inhibition of VEGF-induced cell proliferation in HUVECs” value is listed as “inhibit”, the “inhibition of VEGF-induced migration in HUVECs” value is reported as “inhibit” and the “inhibition of VEGF-induced tube formation in HUVECs” value is given as “inhibit”. In addition, the “inhibition of VEGF-induced angiogenesis in Matrigel plug animal model” value in data set [2] is recorded as “inhibit”. The “inhibition of PAR-4-dependent activation” value in data set [7] is “selective and potent inhibitor”.

Source of the values: patent publication US20060106032A1, “Synthesis of N2 - (substituted arylmethyl) -3- (substituted phenyl) indazoles as novel anti-angiogenic agents” (YUNG SHIN PHARM. IND. CO., LTD., priority 2004, published 2006).
